Entries after “also recorded” stand apart in the source; their conditions may differ.
What was measured:
HDAC7 = molecular target: T1, HDAC7 (Homo sapiens, UniProt Q8WUI4); assay: Individualized HDAC assay, HDAC7; format: biochemical; conditions: purified enzyme, 5 to 0.02 μM
T1 construct: purchased BPS Biosciences
T1 sequence (Q8WUI4 1-952): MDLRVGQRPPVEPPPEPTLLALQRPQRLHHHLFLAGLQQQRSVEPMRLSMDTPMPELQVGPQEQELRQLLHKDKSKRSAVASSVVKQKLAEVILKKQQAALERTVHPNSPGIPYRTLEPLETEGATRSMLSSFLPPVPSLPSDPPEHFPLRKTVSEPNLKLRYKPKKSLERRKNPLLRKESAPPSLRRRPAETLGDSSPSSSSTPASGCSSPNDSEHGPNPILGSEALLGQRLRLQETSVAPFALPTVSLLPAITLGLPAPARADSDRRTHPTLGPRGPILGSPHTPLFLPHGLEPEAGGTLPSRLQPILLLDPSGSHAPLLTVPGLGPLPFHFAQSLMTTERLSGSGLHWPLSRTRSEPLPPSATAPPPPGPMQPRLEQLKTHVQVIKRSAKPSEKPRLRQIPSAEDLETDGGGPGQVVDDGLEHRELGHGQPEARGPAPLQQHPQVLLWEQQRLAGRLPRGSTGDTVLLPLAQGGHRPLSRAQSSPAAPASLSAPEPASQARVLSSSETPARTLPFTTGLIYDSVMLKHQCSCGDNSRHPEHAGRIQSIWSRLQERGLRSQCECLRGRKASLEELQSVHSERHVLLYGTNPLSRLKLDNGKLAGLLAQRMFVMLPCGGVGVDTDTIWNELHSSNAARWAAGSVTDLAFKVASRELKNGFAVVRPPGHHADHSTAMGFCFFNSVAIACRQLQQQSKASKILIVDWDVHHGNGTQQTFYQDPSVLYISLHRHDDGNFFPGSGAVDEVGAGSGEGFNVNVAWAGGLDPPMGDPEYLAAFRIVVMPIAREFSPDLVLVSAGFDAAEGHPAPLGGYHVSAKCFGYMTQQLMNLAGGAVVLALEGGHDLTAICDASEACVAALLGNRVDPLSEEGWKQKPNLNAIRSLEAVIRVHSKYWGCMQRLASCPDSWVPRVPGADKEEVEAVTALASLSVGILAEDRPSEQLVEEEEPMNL
Procedure: (§1) The activity of the curcuphenol analogues was assessed with purified HDAC enzymes from all classes I, II, and IV, as well as a select member of HDAC class III (SIRT1). HDACs 1-9 and SIRT1 were evaluated using HDAC Fluorogenic Assay Kits (BPS Biosciences). All assays were completed in black-sided clear-bottom 96 well plates (PerkinElmer), and all treatments were plated in triplicates. Treatment started at 5 μM and was two-fold diluted to a concentration 0.02 μM. The assays were measured using the Synergy HI hybrid reader (BioTek) and Gen5 software (BioTek), excitation was set to 360 nm and detection was measured at 450 nm with a gain of 100. Alternatively HDAC 10 and 11 (BPS Biosciences) were optimized for HDAC concentration using the HDAC-Glo™ I/II Assay and Screening System (Promega). Following optimization each HDAC was run following the Promega protocol in black-sided clear-bottomed 96 well plates in triplicates with same treatments listed above (PerkinElmer). Luminescence was read 30 minutes after HDAC-Glo™I/II reagent was added using the Synergy HI hybrid reader (BioTek) and Gen5 software (Bio-Tek). […] To calculate percent activity, the average of blank wells was subtracted from all treatment groups. The relative mean of activity of the HDAC being measured was determined and all wells that received treatment were divided this average, to give a percentage of activity.
(§2) To evaluate the effect of the compounds on specific HDACs, their activity was assessed with purified HDAC enzymes from all classes I, II, and IV, as well as a select member of HDAC class III (SIRT1). HDACs 1-9 and SIRT1 were evaluated using HDAC Fluorogenic Assay Kits (BPS Biosciences) following the manufacturer's recommendations. Compound treatment started at 5 μM and was two-fold diluted to a concentration 0.02 μM. […] The assays were measured using the Synergy HI hybrid reader (BioTek) and Gen5 software (Bio-Tek). […] To calculate the fold change in HDAC activity, the values from each treated well were divided by the relative mean of activity of the specific HDAC being measured.

HDAC4 = molecular target: T2, HDAC4 (Homo sapiens, UniProt P56524); assay: Individualized HDAC assay, HDAC4; format: biochemical; conditions: purified enzyme, 5 to 0.02 μM
T2 construct: purchased BPS Biosciences
T2 sequence (P56524 whole entry): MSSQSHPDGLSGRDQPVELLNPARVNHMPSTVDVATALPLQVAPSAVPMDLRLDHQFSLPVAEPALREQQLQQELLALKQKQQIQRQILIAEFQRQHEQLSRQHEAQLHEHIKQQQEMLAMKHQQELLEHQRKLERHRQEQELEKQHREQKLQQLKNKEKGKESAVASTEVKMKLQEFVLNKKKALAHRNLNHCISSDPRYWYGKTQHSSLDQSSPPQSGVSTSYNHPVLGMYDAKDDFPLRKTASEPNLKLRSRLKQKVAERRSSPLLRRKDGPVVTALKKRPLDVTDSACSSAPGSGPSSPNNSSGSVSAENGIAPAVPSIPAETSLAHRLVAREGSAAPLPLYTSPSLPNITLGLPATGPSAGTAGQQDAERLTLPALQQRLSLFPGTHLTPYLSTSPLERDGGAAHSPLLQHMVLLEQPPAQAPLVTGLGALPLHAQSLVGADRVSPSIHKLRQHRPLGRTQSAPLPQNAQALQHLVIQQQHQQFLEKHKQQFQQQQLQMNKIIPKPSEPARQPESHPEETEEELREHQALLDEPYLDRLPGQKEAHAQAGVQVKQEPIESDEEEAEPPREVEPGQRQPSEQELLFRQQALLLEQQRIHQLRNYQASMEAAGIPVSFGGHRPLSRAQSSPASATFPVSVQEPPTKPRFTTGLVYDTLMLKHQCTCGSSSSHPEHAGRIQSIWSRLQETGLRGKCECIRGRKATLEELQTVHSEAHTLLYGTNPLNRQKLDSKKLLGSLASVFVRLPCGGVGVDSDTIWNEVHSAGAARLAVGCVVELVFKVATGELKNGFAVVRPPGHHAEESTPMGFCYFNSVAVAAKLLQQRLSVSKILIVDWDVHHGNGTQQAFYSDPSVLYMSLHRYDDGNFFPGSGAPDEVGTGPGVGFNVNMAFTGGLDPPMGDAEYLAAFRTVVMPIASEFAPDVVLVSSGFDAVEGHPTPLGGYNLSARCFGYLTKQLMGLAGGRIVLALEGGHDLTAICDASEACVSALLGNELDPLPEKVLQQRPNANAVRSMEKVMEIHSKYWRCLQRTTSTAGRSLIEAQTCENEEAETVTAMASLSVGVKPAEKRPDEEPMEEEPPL
Procedure: as §1, §2

[1] = Pharmacokinetics in mouse plasma; format: in vivo; conditions: 5.2 mg/kg i.p.; for half-life in mouse plasma: Example 3; for half-life / concentration at 5 min: female; for half-life: C57BL/6, ip, mouse plasma, Example 1; for concentration at 5 min: C57BL/6, mouse, plasma, intraperitoneal, read-out: concentration in mouse plasma after 5 minutes
Description: To assess the pharmacokinetics (PK) of the curcuphenol analogues, a mass spectrometry assay was developed to measure the compounds in plasma. This assay was created by The Metabolomics Innovation Center (TMIC) at UVic-Genome BC Proteomics Centre located in Victoria, British Columbia. Eight samples were sent to TMIC for PK design for identification of P02-113 and P03-97-1 in mouse plasma. To collect plasma, mice were anesthetized using isoflurane and blood was collected by cardiac puncture. Plasma was isolated from blood in a potassium-EDTA coated Tube with K2E (BD Microtainer) and centrifugation at 10,000×g for 1 minute. Plasma was transferred to a cryovial and stored at −20° C. before being shipped on dry ice. TMIC used a chemical derivatization—UPLC-MMR/MS method to create a quantitative analysis tool for the compounds using dansyl chloride (DAN.CI) as the derivatizing reagent. 13C-labeled DAN.CI was used to produce stable isotope-labeled internal standards (ISs). All tests were performed using an UPLC-4000 QTRAP system with ESI and (+) ion detection using C18 column and acetonitrile-water-formic acid as the mobile phase.
For the PK analysis of P02-113 and P03-97-1, mice were injected i.p. and anesthetized before blood was collected by cardiac puncture at five time points (5 min, 10 min, 30 min, 1 hour and 6 hour). […] Three female C57BL/6 mice, between the ages 6-8 weeks, were used for each compound for each time point, giving a total […]. All mice were injected at the highest maximum tolerated dose (5.2 mg/kg) and plasma was prepared and stored as previously described above.
Pharmacokinetic study. […]. Three mice were used for each time point, with a total of […]. Time points were strategically chosen based on the similar structure of the compounds to TSA, an HDACi, which is known to augment TAP and MHC-I expression in metastatic tumours and to be metabolized at a high rate. The chosen time points were 5 minutes, 10 minutes, 1 hour and 6 hours.

Structure (SMILES) | HDAC7 activity (HDAC7) | HDAC7 activity (HDAC7; listed as PO-3-97-1) | HDAC4 activity (HDAC4) | HDAC4 activity (HDAC4; listed as PO-3-97-1) | level in mouse plasma at the 6 hour time point [1] | time at which plasma concentration was half of the 5 minute concentration [1] | half-life in mouse plasma [1] | half-life [1] [min] | concentration at 5 min [1] [µg/mL]
COc1ccc(C(C)CCC=C(C)C)c(O)c1 (stereo not shown) [P03-97-1] | no change in activity; also recorded: unaffected | did not affect the activity | no change in activity; also recorded: unaffected | did not affect the activity | undetectable levels | around 20 minutes | roughly one | 15 | 0.03
CC(C)=CCCCc1ccc(C)cc1O [P02-113] | no change in activity; also recorded: did not affect the activity; also recorded: unaffected | – | no change in activity; also recorded: did not affect the activity; also recorded: unaffected | – | undetectable levels | 10 min | roughly one | < 5 | 0.0004

Reference: patent publication US20220105051A1, “COMPOUNDS FOR INCREASING MHC-I EXPRESSION AND MODULATING HISTONE DEACETYLASE ACTIVITY” (Cava Healthcare Inc., priority 2019, published 2022)
